Reference: patent US9453835B2, “Method for screening a modulator of a TMEM16 family member” (Kyoto University, priority 2012, dated 2016)

Legend:
[1] = system: TMEM16D transformants of TMEM16F^−/− IFETs; assay: Internalization of NBD-PC and NBD-GalCer by TMEM16D transformants; assay type: cell-based, mouse; settings: 15° C.
Procedure: (§1) A and C, The ability of TMEM16 family members to internalize NBD-PC and NBD-GalCer. TMEM16F^−/− IFETs transformed with the indicated TMEM16 family member were treated at 15° C. with (+) or without (−) 250 nM A23187 in the presence of 100 nM NBD-PC for 4 min (A) or 250 nM NBD-GalCer for 5 min (C), and the internalized, or BSA-non extractable NBD-PC or NBD-GelCer, was quantified by FACSAria, and expressed in MFI.
B, Requirement of Ca^2+ for the constitutive internalization of NBD-PC by TMEM16D. The TMEM16D transformants of TMEM16F^−/− IFETs were treated with 40 μM BAPTA-AM for 30 min in Ca^2+-free RPMI, and incubated at 15° C. for 8 min in HBSS containing 1 mM CaCl2 and 100 nM NBD-PC. The internalized NBD-PC was determined as above, and expressed as percentage of the internalized NBD-PC obtained without BAPTA-AM treatment.
(§2) Cells (10^6) were stimulated at 15° C. with 250 nM A23187 in 1 ml Hank's Balanced Salt Solution (HBSS) (Gibco, Billings, Mont.) containing 1 mM CaCl2, with a fluorescent probe, 100 nM 1-oleoyl-2-{6-[(7-nitro-2-1,3-benzoxadiazol-4-yl)amino]hexanoyl}-sn-glycero-3-phosphocholine (NBD-PC) (Avanti Polar Lipids, Alabaster, Ala.), or 250 nM N-[6-[(7-nitro-2-1,3-benzoxadiazol-4-yl)amino]hexanoyl]-D-galactosyl-β1-1′-sphingosine (C6-NBD galactosyl ceramide or NBD-GalCer) (Avanti Polar Lipids). Aliquots (150 μl) were mixed with 150 μl HBSS containing 5 mg/ml fatty-acid free BSA (Sigma-Aldrich) and 500 nM Sytoxblue (Molecular Probes, Eugene, Oreg.), and analyzed by FACSAria.

TMEM16F^flox/flox IFETs [2] = assay: Internalization of NBD-PC and NBD-GalCer; assay type: cell-based, mouse; settings: 15° C., 250 nM A23187
Procedure: B and C, Ca^2+ ionophore induced lipid internalization. TMEM16F^flox/flox and TMEM16F^−/− IFETs were treated at 15° C. with 250 nM A23187 in the presence of 100 nM NBD-PC (B) or 250 nM NBD-GalCer (C). Using aliquots of the reaction mixture, the BSA-non extractable level of NBD-PC or NBD-GalCer in the SytoxBlue-negative population was determined at the indicated time by FACSAria, and expressed in MFI.
as §2

[3] = system: IFETs expressing TMEM16A, 16B, 16E, 16H, or 16K; assay: Internalization of NBD-PC by TMEM16 transformants without scramblase activity; assay type: cell-based, mouse; settings: 250 nM A23187
Procedure: as §1, §2

TMEM16F^−/− IFETs = assay: Ca2+-induced PS exposure (Cy5-Annexin V binding, flow cytometry); assay type: cell-based, mouse; settings: 20° C., 3.0 μM A23187
Procedure: (§3) A, Ca^2+ ionophore induced PS exposure. TMEM16F^flox/flox and TMEM16F^−/− IFETs were treated at 20° C. with 3.0 μM A23187 in the presence of Cy5-labeled Annexin V. Annexin V-binding to the cells was monitored by flow cytometry for 10 min, and expressed in MFI (mean fluorescence intensity).
(§4) The Ca^2+-induced PS exposure were examined as described (20). In brief, 5×10^5 cells were stimulated at 20° C. with 3.0 μM A23187 in 500 μl of 10 mM Hepes-NaOH buffer (pH 7.4) containing 140 mM NaCl, 2.5 mM CaCl2 and 5 μg/ml Propidium Iodide (PI), and 1000-fold-diluted Cy5-labeled Annexin V (Bio Vision, Milpitas, Calif.), and applied to the injection chamber of a FACSAria (BD Bioscience, Franklin Lakes, N.J.) set at 20° C.

TMEM16F^flox/flox IFETs [4] = assay: as above; assay type: cell-based, mouse; settings: 20° C., 3.0 μM A23187
Procedure: as §3, §4

TMEM16F^flox/flox IFETs [5] = assay: Ca2+-induced PE exposure (binding of RO-peptide); assay type: cell-based, mouse; settings: data not shown
[6] = system: IFETs expressing mouse Fas; assay: FasL-induced apoptosis; assay type: cell-based
Procedure: E-G, FasL-induced apoptosis. Fas-expressing TMEM16F^flox/flox and TMEM16F^−/− IFETs were treated at 37° C. for 2 h with 60 units/ml FasL in the absence or presence of 50 μM Q-VD-OPh. In E, the cells were permeabilized with 90% methanol, and stained with rabbit anti-active caspase 3 followed by incubation with Alexa 488-labeled goat anti-rabbit IgG. In F, cells were stained with Cy5-labeled Annexin V and PI and analyzed by FACSAria. In G, cells were analyzed by FACSAria before and after FasL treatment; the FSC and SSC profiles are shown.
Apoptosis was induced with FasL as described (25). In brief, IFETs expressing mouse Fas were treated with 60 units/ml FasL at 37° C. for 2 h, and PS exposure was determined by flow cytometry with Cy5-Annexin V. To detect activated caspase 3, cells were fixed at 37° C. for 10 min in PBS containing 1% paraformaldehyde, permeabilized with 90% methanol at −20° C., and stained with rabbit mAb against active caspase 3 (Cell Signaling, Danvers, Mass.). Cells were then incubated with Alexa 488-labeled goat anti-rabbit IgG (Invitrogen), and analyzed by FACSAria.

[7] = TMEM16F^flox/flox and TMEM16F^−/− IFETs, to the same extent

In the case of CNc1ccc2oc(C[C@H]3O[C@@]4(CC[C@H]3C)O[C@H]([C@H](C)C(=O)c3ccc[nH]3)[C@H](C)C[C@H]4C)nc2c1C(=O)O [A23187], the NBD-PC internalization ([1]; 250 nM A23187, 100 nM NBD-PC, 4 min, versus constitutive uptake) is reported as “strongly enhanced”, the NBD-GalCer uptake ([1]; 250 nM A23187, 250 nM NBD-GalCer, 5 min, versus constitutive uptake) is reported as “enhanced” and the “internalization of NBD-PC and NBD-GalCer” value (TMEM16F^flox/flox IFETs [2]) is reported as “internalized NBD-PC and NBD-GalCer”. The NBD-PC uptake [3] was “did not induce”, the PS exposure (TMEM16F^−/− IFETs) was “completely absent” and the PS exposure (TMEM16F^flox/flox IFETs [4]) was “quickly exposed PS”. The PE-exposure (TMEM16F^flox/flox IFETs [5]) was “caused rapid PE-exposure”.

In the case of CC(=O)OCOC(=O)CN(CC(=O)OCOC(C)=O)c1ccccc1OCCOc1ccccc1N(CC(=O)OCOC(C)=O)CC(=O)OCOC(C)=O [BAPTA-AM], the “NBD-PC uptake observed without Ca2+-ionophore” value ([1]; pre-treatment 40 μM BAPTA-AM 30 min, 100 nM NBD-PC, 8 min) is reported as “reduced”.

B1: FasL: Leucine-zipper-tagged human FasL produced in COS7 cells (protein)
chain: QIGHPSPPPEKKELRKVAHLTGKSNSRSMPLEWEDTYGIVLLSGVKYKKGGLVINETGLYFVYSKVYFRGQSCNNLPLSHKVYMRNSKYPQDLVMMEGKMMSYCTTGQMWARSSYLGAVFNLTSADHLYVNVSELSLVNFEESQTFFGLYKL
modifications: left off: small tags and cut ends
notes: Leucine-zipper-tagged human FasL produced in COS7 cells
For B1, the “caspase 3 activation” value ([6]; 60 units/ml FasL, 37° C., 2 h) was “efficiently activated”, the PS exposure ([6]; 60 units/ml FasL, 37° C., 2 h, Cy5-Annexin V) was “quickly responded by exposing PS” and the “cell size (forward-scattered light, FSC)” value [6, 7] was “decreased”. The “cellular granularity (side-scattered light, SSC)” value [6, 7] was “increased”.
